The target of this test is T1, HDM2 (Homo sapiens, UniProt Q00987).
T1 construct: Thioredoxin (N); made in house; host or cells: E. coli strain BL21(DE3)Rosetta
The experiment in a line: HDM2 FRET assay (inhibition of binding of FITC labeled p53-pocket peptide to HDM2). The note with it: read-out: FRET IC50. In outline:
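Displacement of FITC-p53 peptide (3 nM) from His-tagged HDM2 (0.5 nM) is measured by Tb-to-fluorescein FRET in PBS, 0.01% BSA, 0.01% Tween-20. IC50 values derive from 10-point curves.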

Setting [1] is: 0.5 nM HDM2 (residues 17 to 125), 3nM peptide, two hour incubation at room temperature.

SMILES strings stand for the structures. Where two headings read alike, the source gives them in different places.

T1 sequence (Q00987 17-125): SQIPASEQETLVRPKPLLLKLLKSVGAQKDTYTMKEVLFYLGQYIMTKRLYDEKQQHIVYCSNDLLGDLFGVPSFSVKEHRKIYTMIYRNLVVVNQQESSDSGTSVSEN

Regarding `C[C@H]1CC[C@H](Cn2c(N3CCOC[C@H]3c3ccccc3)nc3nc(-c4n[nH]c(=O)o4)nc(-c4cccc(Cl)c4)c32)CC1` [Example 16.21, 5-{6-(3-chlorophenyl)-7-[(trans-4-methylcyclohexyl)methyl]-8-[(3R)-3-phenylmorpholin-4-yl]-7H -purin-2-yl}-1,3,4-oxadiazol-2(3H)-one], under setting [1], the IC50 is 2.25 nM.
Turning to `Cc1nonc1C1CCCN1c1nc2nc(-c3noc(=O)[nH]3)nc(N[C@H](C)C3CCC3)c2n1C[C@H]1CC[C@H](C)CC1` (stereo partly drawn) [Example 11.108, 3-(6-{[(1R)-1-cyclobutylethyl]amino}-7-[(trans-4-methylcyclohexyl)methyl]-8-[2-(4-methyl-1,2,5-oxadiazol-3-yl)pyrrolidin-1-yl]-7H-purin-2-yl)-1,2,4-oxadiazol-5(2H)-one], under “Table 11”, the IC50 amounted to 1.6 nM.
Take `C=C(c1nc2nc(-c3noc(=O)[nH]3)nc(N[C@H](C)C3CCC3)c2n1C[C@H]1CC[C@H](C)CC1)C(C)(C)C` [Example 22.11, 3-(6-{[(1R)-1-cyclobutylethyl]amino}-8-(2,2-dimethyl-1-methylidenepropyl)-7-[(trans-4-methylcyclohexyl)methyl]-7H-purin-2-yl)-1,2,4-oxadiazol-5(4H)-one]: for the setting “Table 22”, the IC50 came to 5.73 nM.
As for `C[C@@H](Nc1nc(-c2noc(=O)[nH]2)nc2nc(C(C)(O)c3ccn(C)n3)n(C[C@H]3CC[C@H](C)CC3)c12)C1CCC1` (stereo partly drawn) [Example 22.55, 3-(6-{[(1R)-1-cyclobutylethyl]amino}-8-[1-hydroxy-1-(1-methyl-1H-pyrazol-3-yl)ethyl]-7-[(trans-4-methylcyclohexyl)methyl] -7H-purin-2-yl)-1,2,4-oxadiazol-5(2H)-one], for the setting “Table 22”, the IC50 was determined as 22.7 nM.
On to `C[C@H]1CC[C@H](Cn2c(N3CCOC[C@H]3C(N)=O)nc3nc(-c4noc(=O)[nH]4)nc(-c4cccc(Cl)c4)c32)CC1` [Example 16.117, (3 S)-4-[6-(3-chlorophenyl)-7-[(trans-4-methylcyclohexyl)methyl]-2-(5-oxo-4,5-dihydro-1,2,4-oxadiazol-3-yl)-7H-purin-8-yl]morpholine-3-carboxamide], for which, under setting [1], the IC50 turned out to be 105 nM.
For `C[C@@H](Nc1nc(C(=O)O)nc2nc(C3CCCCC3c3ccccc3)n(Cc3ccc(C(F)(F)F)cc3)c12)C1CCC1` (single isomer, unassigned) [Example 21.2], the IC50 (Table 21) turned out to be 2.36 nM.
Regarding `CC(C)c1ccnc(-c2nc3nc(C(=O)O)nc(N(C)[C@H](C)C4CCC4)c3n2C[C@H]2CC[C@H](C)CC2)c1` [Example 15.2, 6-(((R)-1-cyclobutylethyl)(methyl)amino)-8-(4-isopropylpyridin-2-yl)-7-((trans-4-methylcyclohexyl)methyl)-7H-purine-2-carboxylic acid], the IC50 under setting [1] was found to be 10.5 nM.
Consider `C[C@@H](Nc1nc(-c2noc(=O)[nH]2)nc2nc(N3CCOCC3c3ccccc3Cl)n(C[C@H]3CC[C@H](C)CC3)c12)C1CCC1` (single isomer, unassigned) [Example 11.118], for which the IC50 (Table 11) turned out to be 0.568 nM.
`CC(Nc1nc2nc(C(=O)O)nc(N[C@H](C)C3CCC3)c2n1Cc1ccc(C(F)(F)F)cc1)c1cccnc1` (stereo partly drawn) [Example 9.30, 6-{[(1R)-1-cyclobutylethyl]amino}-8-[(1-pyridin-3-ylethyl)amino]-7-[4-(trifluoromethyl)benzyl]-7H-purine-2-carboxylic acid]: the IC50 (Table 9) was found to be 3.05 nM.
For `Cc1cccc(-c2nc3nc(C(=O)O)nc(N4CCC4C4CCC4)c3n2Cc2ccc(C(F)(F)F)cc2)c1` (centres unmarked) [Example 6.93, 6-(2-cyclobutylazetidin-1-yl)-8-(3-methylphenyl)-7-[4-(trifluoromethyl)benzyl]-7H-purine-2-carboxylic acid], the IC50 (Table 6) was determined as 806 nM.
In the case of `C=C(c1nc2nc(-c3noc(=O)[nH]3)nc(N[C@H](C)C3CCC3)c2n1C[C@H]1CC[C@H](C)CC1)C1CCCCC1` [Example 21.19, 3-(6-{[(1R)-1-cyclobutylethyl]amino}-8-(1-cyclohexylethenyl)-7-[(trans-4-methylcyclohexyl)methyl]-7H-purin-2-yl)-1,2,4-oxadiazol-5(4H)-one], the IC50 (Table 21) was 0.931 nM.
`CCN1CCCCC1c1nc2nc(C(=O)O)nc(N[C@H](C)C3CCC3)c2n1Cc1ccc(C(F)(F)F)cc1` (stereo partly drawn) [Example 10.25, 6-(((R)-1-Cyclobutylethyl)amino)-8-(1-ethylpiperidin-2-yl)-7-(4-(trifluoromethyl)benzyl)-7H-purine-2-carboxylic acid]: the IC50 (Table 10) stood at 35.4 nM.
`C[C@@H](Nc1nc(-c2noc(=O)[nH]2)nc2nc(N3CCCC3CC(C)(C)C)n(C[C@H]3CC[C@H](C)CC3)c12)C1CCC1` (stereo partly drawn) [Example 11.37, 3-(6-{[(1R)-1-cyclobutylethyl]amino}-8-[2-(2,2-dimethylpropyl)pyrrolidin-1-yl]-7-[(trans-4-methylcyclohexyl)methyl]-7H-purin-2-yl)-1,2,4-oxadiazol-5(2H)-one]: the IC50 (Table 11) is 6.98 nM.
As to `Cc1cccc(-c2nc3nc(C(=O)O)nc(NC4CCCCC4C)c3n2Cc2ccc(Br)cc2)c1` (centres unmarked) [Example 6.10, 7-(4-bromobenzyl)-6-[(2-methylcyclohexyl)amino]-8-(3-methylphenyl)-7H-purine-2-carboxylic acid], the IC50 (Table 6) was 1040 nM.
For the compound `COc1ncc(Cl)cc1-c1nc(-c2noc(=O)[nH]2)nc2nc(N3CCOC[C@H]3c3ccccc3)n(C[C@H]3CC[C@H](C)CC3)c12` [Example 16.156, 3-{6-(5-chloro-2-methoxypyridin-3-yl)-7-[(trans-4-methylcyclohexyl)methyl]-8-[(3R)-3-phenylmorpholin-4-yl]-7H-purin-2-yl}-1,2,4-oxadiazol-5(4H)-one], the IC50 under setting [1] was 0.851 nM.
Turning to `C[C@@H](Nc1nc(-c2noc(=O)[nH]2)nc2nc(N3CCOCC3c3ccccc3Cl)n(C[C@H]3CC[C@H](C)CC3)c12)C1CCC1` (single isomer, unassigned) [Example 11.117], the IC50 (Table 11) worked out at 3.77 nM.
For `Cc1cccc(-c2nc3nc(C(=O)O)nc(NC(C)C(C)(C)C)c3n2Cc2ccc(C(F)(F)F)cc2)c1` (centres unmarked) [Example 6.74, 8-(3-methylphenyl)-7-[4-(trifluoromethyl)benzyl]-6-[(1,2,2-trimethylpropyl)amino]-7H-purine-2-carboxylic acid], the IC50 (Table 6) was found to be 552 nM.
For the compound `C[C@@H](Nc1nc(-c2noc(=O)[nH]2)nc2nc(N3CCC[C@H]3c3nnnn3C)n(C[C@H]3CC[C@H](C)CC3)c12)C1CCC1` [Example 11.110, 3-(6-{[(1R)-1-cyclobutylethyl]amino}-7-[(trans-4-methylcyclohexyl)methyl]-8-[(2S)-2-(1-methyl-1H-tetrazol-5-yl)pyrrolidin-1-yl]-7H-purin-2-yl)-1,2,4-oxadiazol-5(2H)-one], the IC50 (Table 11) amounted to 6.76 nM.
For `C[C@@H](Nc1nc(C(=O)O)nc2nc(C3(c4ccccc4)CCC3)n(C[C@H]3CC[C@H](C)CC3)c12)C1CCC1` [Example 20.1, 6-{[(1R)-1-cyclobutylethyl]amino}-7-[(trans-4-methylcyclohexyl)methyl]-8-(1-phenylcyclobutyl)-7H-purine-2-carboxylic acid], the IC50 (Table 20) turned out to be 1.46 nM.
For `C[C@@H](Nc1nc(-c2noc(=O)[nH]2)nc2nc(C3(c4cccnc4)CC3)n(C[C@H]3CC[C@H](C)CC3)c12)C1CCC1` [Example 22.39, 3-[6-{[(1R)-1-cyclobutylethyl]amino}-7-[(trans-4-methylcyclohexyl)methyl] -8-(1-pyridin-3-ylcyclopropyl)-7H-purin-2-yl]-1,2,4-oxadiazol-5(2H)-one], for the setting “Table 22”, the IC50 was 13.9 nM.
On to `C[C@@H](Nc1nc(C(=O)O)nc2nc(N3CCCCC3c3ccccn3)n(C[C@H]3CC[C@H](C)CC3)c12)C1CCC1` (stereo partly drawn) [Example 11.21, 6-{[(1R)-1-cyclobutylethyl]amino}-7-[(trans-4-methylcyclohexyl)methyl]-8-(2-pyridin-2-ylpiperidin-1-yl)-7H-purine-2-carboxylic acid], for which, for the setting “Table 11”, the IC50 stood at 2.72 nM.
In the case of `CC1CCCCC1(F)c1nc2nc(-c3noc(=O)[nH]3)nc(-c3cncc(Cl)c3)c2n1C[C@H]1CC[C@H](C)CC1` (relative stereo) [Example 23.65, 3-{6-(5-chloropyridin-3-yl)-8-(1-fluoro-2-methylcyclohexyl)-7-[(trans-4-methylcyclohexyl)methyl] -7H-purin-2-yl}-1,2,4-oxadiazol-5(4H)-one], the IC50 (Table 23) is 6.63 nM.
`CC(C)c1ccnc(-c2nc3nc(C(=O)O)nc(N[C@H](C)C4CCC4)c3n2C[C@H]2CC[C@H](C)CC2)c1F` [Example 15.6, 6-(((R)-1-Cyclobutylethyl)amino)-8-(3-fluoro-4-isopropylpyridin-2-yl)-7-((trans-4-methylcyclohexyl)methyl)-7H-purine-2-carboxylic acid]: the IC50 under setting [1] is 6.02 nM.
In the case of `C[C@@H](Nc1nc(-c2noc(=O)[nH]2)nc2nc(N3CCOC4CC43)n(C[C@H]3CC[C@H](C)CC3)c12)C1CCC1` (stereo partly drawn) [Example 11.127, 3-[6-{[(1R)-1-cyclobutylethyl]amino}-7-[(trans-4-methylcyclohexyl)methyl]-8-(2-oxa-5-azabicyclo[4.1.0]hept-5-yl)-7H-purin-2-yl]-1,2,4-oxadiazol-5(4H)-one], the IC50 (Table 11) was determined as 26.2 nM.
Regarding `CC[C@@H]1COCCN1c1nc2nc(-c3noc(=O)[nH]3)nc(-c3cccc(Cl)c3)c2n1C(C)[C@H]1CC[C@H](C)CC1` (single isomer, unassigned) [Example 18.50], where the note is “Table 18”, the IC50 was determined as 7.04 nM.
On to `C[C@@H](Nc1nc(-c2noc(=O)[nH]2)nc2nc(C3CCCCC3c3ccccc3)n(C[C@H]3CC[C@H](C)CC3)c12)C1CCC1` (single isomer, unassigned) [Example 21.25], for which, under “Table 21”, the IC50 was 28.9 nM.

The IC50 is the midpoint of a concentration-inhibition curve.

Values taken from patent publication EP2951180B1, “2,6,7,8 SUBSTITUTED PURINES AS HDM2 INHIBITORS” (Merck Sharp & Dohme Corp., priority 2013, dated 2014).
